Measurements: patent publication US5491149A, “Dihydroxypropylamine containing retroviral protease inhibitors” (The Du Pont Merck Pharmaceutical Company, priority 1994, dated 1996)
≈ marks a conversion by molar mass, not a printed value.

How the values were obtained:
[1] = target: T1, HIV protease (Human immunodeficiency virus type 1 group M subtype B, UniProt P04585); assay: Cell Free HIV Protease Inhibition Assay (gag polyprotein); assay type: biochemical; settings: HIV gag polyprotein substrate, 30° C.
T1 construct: plasmid containing HIV protease under the control of the T7 promotor; made in house; host or cells: E. coli (crude lysate, lac promoter)
Excerpt: Procedure III: Cell Free Protease Inhibition Assay Materials:
HIV gag polyprotein corresponding to all of p17 and 78 amino acids of p24, produced by in vitro translation using rabbit reticulocyte lysate and mRNA prepared in vitro from plasmid encoding full length gag polyprotein linerized with the restriction enzyme Pst 1. (see S. Erickson-Viitanen et al., AIDS Research and Human Retroviruses, 5 (6), 577 (1989) for plasmid construction, and basis for assay).
Source of protease: Either (A) crude E. coli lysate of bacteria harboring a plasmid containing HIV protease under the control of the lac promotor, used at a final concentration of 0.5 mg/ml, or (B) inclusion bodies of E. coli harboring plasmid containing HIV protease under the control of the T7 promotor (Cheng et al., Gene, in press (1990)). Such inclusion bodies were solubilized in 8M urea, 50 mM Tris pH 8.0. Protease activity was recovered by dilution of the inclusion bodies 20-fold in buffer containing 50 mM Sodium Acetate, pH 5.5, 1 mM EDTA, 10% glycerol and 5% ethylene glycol. This protease source was used at a final concentration of 0.00875 mg/ml.
Inhibitory compounds were dissolved in sufficient DMSO to make a 2.5 mM stock concentration. All further dilutions were done in DMSO.
Into sterile test tubes were placed the following:
14 ul HIV protease in Phosphate Buffered Saline (20 mM Sodium Phosphate, 0.15M NaCl, pH 6.5).
5 μl of in vitro translation products.
Reactions were incubated at 30° C., then quenched by the addition of Sample buffer. See U. K. Laemmli, Nature, 1970, 227:680-685.
One fourth of each sample was analyzed on an 8-16% gradient denaturing acrylamide gel (Novex, Inc), according to Laemmli. Following electrophoresis, gels were fixed, impregnated with Enhance (Du Pont NEN, Boston, Mass.) and dried according to manufacturers instructions (NEN). Dried fluorographs were exposed to film and/or quantitated using an Ambis radioanalytic scanner.
Each group of test compounds was compared to the values obtained for pepstatin, a well known inhibitor of acid proteases . Inhibitory concentration for 50% inhibition (IC50) is determined from plots of log concentration inhibitor versus % inhibition of protease activity.
Biological Activity: IC50 is the concentration necessary for reducing the activity of the enzyme by 50%.

[2] = tested on: HIV(3B) or HIV(RF) in MT-2 human T-cells; assay: HIV Low Multiplicity Assay (XTT, MT-2 cells); assay type: cell-based; settings: Human immunodeficiency virus 1, MT2, 168 h, 90% protection, multiplicity of infection 0.01, 7 days
Method: HIV Low Multiplicity Assby
MT-2, a human T-cell line, was cultured in RPMI medium supplemented with 5% (v/v) heat inactivated fetal calf serum (FCS), L-glutamine and gentamycin (GIBCO). Human immunodeficiency virus strains HIV(3B) and HIV(Rf) were propagated in H-9 cells in RPMI with 5% FCS. XTT, benzene-sulfonic acid, 3,3'-[1-[(phenylamino)carbonyl]-3,4-tetrazolium]bis(4-methoxy-6-nitro)-, sodium salt, was obtained from Starks Associates, Inc.
Test compounds were dissolved in dimethyl-sulfoxide to 5 mg/ml and serially diluted into RPMI medium to ten times the desired final concentration. MT-2 cells (5×10^4 /0.1 ml) were added to each well of a 96 well culture plate and 0.02 ml of the appropriate test compound solution was added to the cells such that each compound concentration was present in two wells. The cells and compounds were allowed to sit for 30 minutes at room temperature. HIV(3B) or HIV(RF) (~5×10^5 plaque forming units/ml) was diluted in medium and added to the cell and compound mixtures to give a multiplicity of infection of 0.01 plaque forming unit/cell. The mixtures were incubated for 7 days at 36° C., during which time the virus replicated and caused the death of unprotected cells. The percentage of cells protected from virus induced cell death was determined by the degree of metabolism of the tetrazolium dye, XTT. In living cells, XTT was metabolized to a colored formazan product which was quantitated spectrophotometrically at 450 nm. The amount of colored formazan was proportional to the number of cells protected from virus by the test compound. The concentration of compound protecting either 50% (IC50) or 90% (IC90) with respect to an uninfected cell culture was determined.

Row | IC50 [1] [µM] | IC90 [2] [µg/mL] | Structure (SMILES)
1 | 2.11 | 1.7 (≈ 2.56 µM) | CC(C)[C@H](NC(=O)OCc1ccccc1)C(=O)N[C@@H](Cc1ccccc1)[C@H](O)[C@H](O)CN1C[C@H]2CCCC[C@H]2C[C@H]1C(=O)NC(C)(C)C (relative stereo) [Example 3, [3-[2[1R*(R*),2R*,3S*],3a,4ab,8ab]]-(phenylmethyl)[1-[[[4-[3-[[(1,1-dimethylethyl)amino]carbonyl]octahydro-2(1H)-isoquinolinyl-2,3-dihydroxy-1-(phenylmethyl)butyl]amino]carbonyl]-2-methylpropyl]carbamate]
2 | 3.02 | 2 (≈ 2.94 µM) | CC(C)(C)NC(=O)[C@@H]1C[C@@H]2CCCC[C@@H]2CN1C[C@@H](O)[C@@H](O)[C@H](Cc1ccccc1)NC(=O)[C@H](CC(N)=O)NC(=O)OCc1ccccc1 [Example 1, [3S-[2[1R*(R*),2R*,3S*],3a,4ab,8ab]]-(phenylmethyl)[3-amino-1-[[[4-[3-[[(1,1-dimethylethyl)amino]carbonyl]octahydro-2(1H)-isoquinolinyl]-2,3-dihydroxy-1(phenylmethyl)butyl]amino]carbonyl]-3-oxopropyl]carbamate]
3 | 0.542 | 0.3 (≈ 0.428 µM) | CC(C)(C)NC(=O)[C@@H]1C[C@@H]2CCCC[C@@H]2CN1C[C@@H](O)[C@@H](O)[C@H](Cc1ccccc1)NC(=O)[C@H](CC(N)=O)NC(=O)c1ccc2ccccc2n1 [Example 2, [3S-[2[1R*(R*),2R*,3S*],3a,4ab,8b]]-N1-[4-[3-[[(1,1-dimethylethyl)amino]carbonyl]octahydro-2(1H)-isoquinolinyl]-2,3-dihydroxy-1-(phenylmethyl)butyl]-2-[(2-quinolinylcarbonyl)amino]butanediamide]
4 | 2.93 | 1 (≈ 1.47 µM) | CC[C@H](C)[C@H](NC(=O)OCc1ccccc1)C(=O)N[C@@H](Cc1ccccc1)[C@H](O)[C@H](O)CN1C[C@H]2CCCC[C@H]2C[C@H]1C(=O)NC(C)(C)C [Example 4, [3S-[2[1R*(R*,R*),2R*,3S*],3a,4ab,8ab]]-(phenylmethyl)[1-[[[4-[3-[[(1,1-dimethylethyl)amino]carbonyl]octahydro-2(1H)-isoquinolinyl]-2,3-dihydroxy-1-(phenylmethyl)butyl]amino]carbonyl]-2-methylbutyl]carbamate]
5 | > 18.4 | > 30 | CC(C)(C)NC(=O)[C@@H]1C[C@@H]2CCCC[C@@H]2CN1C[C@H](O)[C@H](O)[C@H](Cc1ccccc1)NC(=O)[C@H](CC(N)=O)NC(=O)OCc1ccccc1 [Example 5, [3S-[2[1R*(R*),2S*,3R*],3a,4ab,8ab]]-(phenylmethyl)[3-amino-1-[[[4-[3-[[(1,1-dimethylethyl)amino]carbonyl]octahydro-2(1H)-isoquinolinyl]-2,3-dihydroxy-1-(phenylmethyl)butyl]amino]carbonyl]-3-oxopropyl]carbamate]
6 | > 17.8 | 10 (≈ 14.3 µM) | CC(C)(C)NC(=O)[C@@H]1C[C@@H]2CCCC[C@@H]2CN1C[C@H](O)[C@H](O)[C@H](Cc1ccccc1)NC(=O)[C@H](CC(N)=O)NC(=O)c1ccc2ccccc2n1 [Example 6, [3S-[2[1R*(R*),2S*,3R*],3a,4ab,8ab]]-N1-[4-[3-[[(1,1-dimethylethyl)amino]carbonyl]octahydro-2(1H)-isoquinolinyl]-2,3-dihydroxy-1-(phenylmethyl)butyl]-2-[(2-quinolinylcarbonyl)amino]butanediamide]
7 | 2.84 | 2.2 (≈ 3.14 µM) | CC(C)(C)NC(=O)[C@@H]1C[C@@H]2CCCC[C@@H]2CN1C[C@H](O)[C@@H](O)[C@H](Cc1ccccc1)NC(=O)[C@H](CC(N)=O)NC(=O)c1ccc2ccccc2n1 [Example 7, [3S-[2[1R*(R*),2R*,3R*],3a,4ab,8ab]]-N1-[4-[3-[[(1,1-dimethylethyl)amino]carbonyl]octahydro-2(1H)-isoquinolinyl]-2,3-dihydroxy-1-(phenylmethyl)butyl]-2-[(2-quinolinylcarbonyl)amino]butanediamide]
8 | > 18.4 | > 30 | CC(C)(C)NC(=O)[C@@H]1C[C@@H]2CCCC[C@@H]2CN1C[C@@H](O)[C@H](O)[C@H](Cc1ccccc1)NC(=O)[C@H](CC(N)=O)NC(=O)OCc1ccccc1 [Example 8, [3S-[2[1R*(R*),2S*,3S*],3a,4ab,8ab]]-(phenylmethyl)[3-amino-1-[[[4-[3-[[(1,1-dimethylethyl)amino]carbonyl]octahydro-2(1H)-isoquinolinyl-2,3-dihydroxy-1-(phenylmethyl)butyl]amino]carbonyl]-3-oxopropyl]carbamate]
9 | > 17.8 | 3 (≈ 4.28 µM) | CC(C)(C)NC(=O)[C@@H]1C[C@@H]2CCCC[C@@H]2CN1C[C@@H](O)[C@H](O)[C@H](Cc1ccccc1)NC(=O)[C@H](CC(N)=O)NC(=O)c1ccc2ccccc2n1 [Example 9, [3S-[2[1R*(R*),2S*,3S*],3a,4ab,8ab]]-N1-[4-[3-[[(1,1-dimethylethyl)amino]carbonyl]octahydro-2(1H)-isoquinolinyl]-2,3-dihydroxy-1-(phenylmethyl)butyl]-2-[(2-quinolinylcarbonyl)amino]butanediamide]
